This assay has as its target T1, human NEP (Homo sapiens, UniProt P08473).
T1 construct: purchased R&D Systems, Minneapolis, Minn; 1182-ZN
Put plainly: In vitro enzyme inhibition assay, inhibitor potency at human NEP. Particulars: pKi values at human NEP; recombinant human NEP, fluorogenic peptide substrate 10 μM, 37° C. In kind it is biochemical. The procedure:
The inhibitory activities of compounds at human and rat neprilysin (EC 3.4.24.11; NEP) and human angiotensin converting enzyme (ACE) were determined using in vitro assays as described below.
Recombinant human NEP and recombinant human ACE were obtained commercially (R&D Systems, Minneapolis, Minn., catalog numbers 1182-ZN and 929-ZN, respectively). The fluorogenic peptide substrate Mca-D-Arg-Arg-Leu-Dap-(Dnp)-OH (Medeiros et al. (1997) Braz. J. Med. Biol. Res. 30:1157-62; Anaspec, San Jose, Calif.) and Abz-Phe-Arg-Lys(Dnp)-Pro-OH (Araujo et al. (2000) Biochemistry 39:8519-8525; Bachem, Torrance, Calif.) were used in the NEP and ACE assays respectively.
The assays were performed in 384-well white opaque plates at 37° C. using the fluorogenic peptide substrates at a concentration of 10 μM in Assay Buffer (NEP: 50 mM HEPES, pH 7.5, 100 mM NaCl, 0.01% polyethylene glycol sorbitan monolaurate (Tween-20), 10 μM ZnSO4; ACE: 50 mM HEPES, pH 7.5, 100 mM NaCl, 0.01% Tween-20, 1 μM ZnSO4).
Test compounds were assayed over the range of concentrations from […] to 20 μM. Test compounds were added to the enzymes and incubated for 30 minute at 37° C. prior to initiating the reaction by the addition of substrate. Reactions were terminated after 20 minutes of incubation at 37° C. by the addition of glacial acetic acid to a final concentration of 3.6% (v/v).
Plates were read on a fluorometer with excitation and emission wavelengths set to 320 nm and 405 nm, respectively. Inhibition constants were obtained by nonlinear regression of the data using the equation (GraphPad Software, Inc., San Diego, Calif.): v=v0/[1+(I/K′)] where v is the reaction rate, v0 is the uninhibited reaction rate, I is the inhibitor concentration and K′ is the apparent inhibition constant.
Compounds of the invention were tested in this assay and found to have pKi values at human NEP as follows.

The results in this text go back to US9771337B2, “Neprilysin inhibitors” (THERAVANCE BIOPHARMA R&D IP, LLC, priority 2011, dated 2017).

As usually defined, the Ki is a measure of affinity in units of concentration, obtained from inhibition or displacement.

Some results are limits rather than exact numbers.

T1 sequence (P08473 whole entry): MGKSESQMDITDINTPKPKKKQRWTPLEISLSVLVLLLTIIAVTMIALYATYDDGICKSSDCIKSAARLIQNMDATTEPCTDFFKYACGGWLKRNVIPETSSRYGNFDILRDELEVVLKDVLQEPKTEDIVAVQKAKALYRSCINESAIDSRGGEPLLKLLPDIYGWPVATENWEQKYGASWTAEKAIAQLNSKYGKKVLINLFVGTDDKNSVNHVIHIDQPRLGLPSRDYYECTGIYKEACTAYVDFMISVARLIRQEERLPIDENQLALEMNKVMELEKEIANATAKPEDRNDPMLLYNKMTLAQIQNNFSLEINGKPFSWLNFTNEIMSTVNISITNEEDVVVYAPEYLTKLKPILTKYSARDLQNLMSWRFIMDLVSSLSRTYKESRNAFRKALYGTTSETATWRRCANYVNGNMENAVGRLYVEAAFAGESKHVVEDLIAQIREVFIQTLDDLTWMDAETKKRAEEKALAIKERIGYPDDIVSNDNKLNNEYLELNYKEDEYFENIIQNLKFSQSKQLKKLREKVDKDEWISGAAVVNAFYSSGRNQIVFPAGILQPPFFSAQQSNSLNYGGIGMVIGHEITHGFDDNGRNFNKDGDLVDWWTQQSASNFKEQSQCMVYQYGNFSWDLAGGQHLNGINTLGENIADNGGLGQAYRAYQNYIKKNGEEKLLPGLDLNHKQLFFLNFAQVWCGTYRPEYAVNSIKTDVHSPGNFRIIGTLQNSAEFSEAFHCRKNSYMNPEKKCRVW

For the compound `O=C(N[C@H](Cc1ccccc1C(F)(F)F)[C@@H](O)C(=O)O)c1cnc2[nH]nnc2c1` [Example 3, (2R,3R)-2-Hydroxy-3-[(3H-[1,2,3]triazolo[4,5-b]pyridine-6-carbonyl)-amino]-4-(2-trifluoromethyl-phenyl)-butyric acid], the Ki is 1.26 to 10 nM.
As for `O=C(N[C@H](Cc1ccccc1Cl)[C@@H](O)C(=O)O)c1cc(-c2cccc(Cl)c2)no1` [Example 2-13, (2R,3R)-4-(2-Chloro-phenyl)-3-{[3-(3-chloro-phenyl)-isoxazole-5-carbonyl]-amino}-2-hydroxy-butyric acid], the figure is 1.26 to 10 nM; as for `O=C(N[C@H](Cc1ccccc1Cl)[C@@H](O)C(=O)O)c1cnc2nn[nH]c2c1` [Example 2-37, (2R,3R)-4-(2-Chloro-phenyl)-2-hydroxy-3-[(1H-[1,2,3]triazolo[4,5-b]pyridine-6-carbonyl)-amino]-butyric acid], 1.26 to 10 nM; as for `CCc1nc2c(Cl)cc(C(=O)N[C@H](Cc3ccccc3)[C@@H](O)C(=O)O)cc2[nH]1` [Example 5-9, (2R,3R)-3-[(7-Chloro-2-ethyl-3H-benzoimidazole-5-carbonyl)-amino]-2-hydroxy-4-phenyl-butyric acid], 12.6 to 100 nM.
As for `O=C(O)C[C@@H](Cc1ccccc1Cl)NC(=O)c1cc(F)c2[nH]nnc2c1` [Example 7-6, (R)-4-(2-Chloro-phenyl)-3-[(7-fluoro-1H-benzotriazole-5-carbonyl)-amino]-butyric acid], the figure is 12.6 to 100 nM; as for `O=C(O)c1ccc(C(=O)N[C@H](Cc2ccccc2)[C@@H](O)C(=O)O)s1` [Example 5-31, 5-((1R,2R)-1-Benzyl-2-carboxy-2-hydroxy-ethylcarbamoyl)-thiophene-2-carboxylic acid], 1.26 to 10 nM; as for `O=C(N[C@H](Cc1ccccc1Cl)[C@@H](O)C(=O)O)c1cc(C(=O)O)c2[nH]nnc2c1` [Example 2-31, 6-[(1R,2R)-2-Carboxy-1-(2-chloro-benzyl)-2-hydroxy-ethylcarbamoyl]-3H-benzotriazole-4-carboxylic acid], 12.6 to 100 nM.
Regarding `CCCc1nc2c(C)cc(C(=O)N[C@H](Cc3ccccc3)[C@@H](O)C(=O)O)cc2n1Cc1ccc(Br)nc1` [Example 5-2, (2R,3R)-3-{[3-(6-Bromo-pyridin-3-ylmethyl)-7-methyl-2-propyl-3H-benzoimidazole-5-carbonyl]-amino}-2-hydroxy-4-phenyl-butyric acid], the inhibition constant Ki is 12.6 to 100 nM.
The figure for `O=C(N[C@H](Cc1ccccc1Cl)[C@@H](O)C(=O)O)c1cncc(-c2ccccc2C(=O)O)c1` [Example 2-5, 2-{5-[(1R,2R)-2-Carboxy-1-(2-chloro-benzyl)-2-hydroxy-ethylcarbamoyl]-pyridin-3-yl}-benzoic acid] is 1.26 to 10 nM; for `O=C(N[C@H](Cc1ccccc1Cl)[C@@H](O)C(=O)O)c1cc2n(n1)CCOc1ccccc1-2` [Example 2-26, (2R,3R)-4-(2-Chloro-phenyl)-3-[(4,5-dihydro-6-oxa-3,3a-diaza-benzo[e]azulene-2-carbonyl)-amino]-2-hydroxy-butyric acid] it is 1.26 to 10 nM.
The figure for `O=C(N[C@H](Cc1ccccc1Cl)[C@@H](O)C(=O)O)c1cnc(O)nc1` [Example 2-35, (2R,3R)-4-(2-Chloro-phenyl)-2-hydroxy-3-[(2-hydroxy-pyrimidine-5-carbonyl)-amino]-butyric acid] is not above 1 nM; for `O=C(O)C[C@@H](Cc1ccccc1Cl)NC(=O)c1ccc(-c2ccccc2C(=O)O)nn1` [Example 7-9, 2-{6-[(R)-2-Carboxy-1-(2-chloro-benzyl)-ethylcarbamoyl]-pyridazin-3-yl}-benzoic acid] it is 12.6 to 100 nM.
As for `O=C(N[C@H](Cc1ccccc1Cl)[C@@H](O)C(=O)O)c1cc(-c2ccccc2Cl)no1` [Example 2-12, (2R,3R)-4-(2-Chloro-phenyl)-3-{[3-(2-chloro-phenyl)-isoxazole-5-carbonyl]-amino}-2-hydroxy-butyric acid], the figure is 1.26 to 10 nM; as for `O=C(O)C[C@@H](Cc1ccccc1Cl)NC(=O)c1cnn[nH]1` [Example 7-1, (R)-4-(2-Chloro-phenyl)-3-[(3H-[1,2,3]triazole-4-carbonyl)-amino]-butyric acid], 12.6 to 100 nM.
Regarding `O=C(N[C@H](Cc1ccccc1Cl)[C@H](O)C(=O)O)c1cnn[nH]1` [Example 2-19, (2S,3R)-4-(2-Chloro-phenyl)-2-hydroxy-3-[(3H-[1,2,3]triazole-4-carbonyl)-amino]-butyric acid], the Ki is 12.6 to 100 nM.
As for `O=C(N[C@H](Cc1ccccc1Cl)[C@@H](O)C(=O)O)c1cnc(O)c(-c2ccccc2C(=O)O)c1` [Example 2-7, 2-{5-[(1R,2R)-2-Carboxy-1-(2-chloro-benzyl)-2-hydroxy-ethylcarbamoyl]-2-hydroxy-pyridin-3-yl}-benzoic acid], the figure is not above 1 nM.
As for `O=C(N[C@H](Cc1ccccc1Cl)[C@@H](O)C(=O)O)c1cn(Cc2ccccc2)nn1` [Example 2-20, (2R,3R)-3-[(1-Benzyl-1H-[1,2,3]triazole-4-carbonyl)-amino]-4-(2-chloro-phenyl)-2-hydroxy-butyric acid], the figure is 12.6 to 100 nM.
As for `Cc1cc(C(=O)N[C@H](Cc2ccccc2Cl)[C@H](O)C(=O)O)cc2[nH]nnc12` [Example 2-30, (2S,3R)-4-(2-Chloro-phenyl)-2-hydroxy-3-[(7-methyl-3H-benzotriazole-5-carbonyl)-amino]-butyric acid], the figure is 12.6 to 100 nM.
As for `O=C(N[C@H](Cc1ccccc1Cl)[C@@H](O)C(=O)O)c1cnc(O)cn1` [Example 2-34, (2R,3R)-4-(2-Chloro-phenyl)-2-hydroxy-3-[(5-hydroxy-pyrazine-2-carbonyl)-amino]-butyric acid], the Ki was 12.6 to 100 nM.
As for `O=C(N[C@H](Cc1ccccc1)[C@@H](O)C(=O)O)c1cc(F)c2[nH]nnc2c1` [Example 5-16, (2R,3R)-3-[(7-Fluoro-1H-benzotriazole-5-carbonyl)-amino]-2-hydroxy-4-phenyl-butyric acid], the figure is 12.6 to 100 nM.
The figure for `O=C(N[C@H](Cc1ccccc1)[C@@H](O)C(=O)O)c1ccc(-c2ccccc2C(=O)O)cn1` [Example 5-24, 2-[6-((1R,2R)-1-Benzyl-2-carboxy-2-hydroxy-ethylcarbamoyl)-pyridin-3-yl]-benzoic acid] is 12.6 to 100 nM; for `O=C1CCC(C(=O)N[C@H](Cc2ccccc2Cl)[C@@H](O)C(=O)O)=NN1` [Example 2-39, (2R,3R)-4-(2-Chloro-phenyl)-2-hydroxy-3-[(6-oxo-1,4,5,6-tetrahydro-pyridazine-3-carbonyl)-amino]-butyric acid] it is 12.6 to 100 nM.
As for `Cc1cc(C(=O)N[C@H](Cc2ccccc2Cl)[C@@H](O)C(=O)O)cc(-c2ccccc2C(=O)O)n1` [Example 2-4, 2-{4-[(1R,2R)-2-Carboxy-1-(2-chloro-benzyl)-2-hydroxy-ethylcarbamoyl]-6-methyl-pyridin-2-yl}-benzoic acid], the Ki is 1.26 to 10 nM.
The figure for `O=C(N[C@H](Cc1ccccc1Cl)[C@@H](O)C(=O)O)c1ccc(-c2ccccc2C(=O)O)nc1` [Example 2-8, 2-{5-[(1R,2R)-2-Carboxy-1-(2-chloro-benzyl)-2-hydroxy-ethylcarbamoyl]-pyridin-2-yl}-benzoic acid] is 1.26 to 10 nM; for `Cc1cc(C(=O)N[C@H](Cc2ccccc2)[C@@H](O)C(=O)O)cc2[nH]nnc12` [Example 5-15, (2R,3R)-2-Hydroxy-3-[(7-methyl-3H-benzotriazole-5-carbonyl)-amino]-4-phenyl-butyric acid] it is 12.6 to 100 nM.
Regarding `O=C(N[C@H](Cc1ccccc1)[C@@H](O)C(=O)O)c1ccc(-c2ccccc2C(=O)O)nc1` [Example 5-21, 2-[5-((1R,2R)-1-Benzyl-2-carboxy-2-hydroxy-ethylcarbamoyl)-pyridin-2-yl]-benzoic acid], the Ki is 1.26 to 10 nM.
Consider `O=C(O)C[C@@H](Cc1ccccc1Cl)NC(=O)c1cc(-c2ccccc2C(=O)O)ccn1` [Example 6, 2-{2-[(R)-1-Carboxymethyl-2-(2-chloro-phenyl)-ethylcarbamoyl]-pyridin-4-yl}-benzoic Acid], for which the Ki was 1.26 to 10 nM.
As for `O=C(N[C@H](Cc1ccccc1Cl)[C@@H](O)C(=O)O)c1ccc2ncc(Br)n2c1` [Example 2-33, (2R,3R)-3-[(3-Bromo-imidazo[1,2-a]pyridine-6-carbonyl)-amino]-4-(2-chloro-phenyl)-2-hydroxy-butyric acid], the figure is 12.6 to 100 nM; as for `O=C(O)c1ccc(C(=O)N[C@H](Cc2ccccc2Cl)[C@@H](O)C(=O)O)o1` [Example 2-32, 5-[(1R,2R)-2-Carboxy-1-(2-chloro-benzyl)-2-hydroxy-ethylcarbamoyl]-furan-2-carboxylic acid], 12.6 to 100 nM.
